Results: patent US20250353809A1, “NITROGEN-CONTAINING CHAIN COMPOUND, PREPARATION METHOD, COMPOSITION CONTAINING SAID COMPOUND, AND USE THEREOF” (SHANGHAI RNACURE BIOPHARMA CO., LTD., priority 2022, published 2025)

How the values were obtained:
[1] = Encapsulation efficiency of LNP (Quant-it Ribogreen RNA quantitative assay kit); type: physicochemical
[2] = pKa of LNP by TNS dye binding test; type: physicochemical; details: Table 3, pKa of the LNP, 40:11:47.4:1.6, N/P 8:1
Method: (§1) In this example, the ionizable lipids prepared from Preparation Example 3 to Preparation Example 17 were selected. Following the same method as in Example 1, an LNP preparation (encapsulating Fluc mRNA) was prepared according to a molar ratio and a nitrogen-to-phosphorus ratio shown in Table 3. Malvern Zetasizer Ultra was used to measure a particle size, a PDI, and a surface potential of each LNP preparation; a Quant-it Ribogreen RNA quantification assay kit (manufacturer: ThermoFisher Scientific, item number: R11490) was used to measure encapsulation efficiency of LNP; and a dye binding test of 6-(p-Toluidino)-2-naphthalene sulfonic acid sodium salt (TNS, purchased from Nanjing Xize Pharmaceutical Technology Co., Ltd., item number: XZ0743) was used to measure pKa of the LNP.

[3] = Surface potential of LNP preparation (Malvern Zetasizer Ultra); type: physicochemical; details: Table 3; LNP 40:11:47.4:1.6, N/P 8:1
Method: as §1

[4] = Particle size and PDI of LNP preparation by dynamic light scattering (Malvern Zetasizer Ultra); type: physicochemical
[5] = tested on: female Balb/C mice; assay: In-vivo bioluminescence (overall luminescence intensity, AUC) after tail vein injection of Fluc mRNA LNP; details: 5 μg/mouse, liver site, Table 3 LNP
[6] = tested on: female Balb/C mice; assay: In-vivo bioluminescence at lower limb administration site after intramuscular injection of Fluc mRNA LNP; details: 5 μg/mouse, Table 3 LNP
Method: In this example, LQ104-1 to LQ104-8 (encapsulating Fluc mRNA) from Example 1 were injected via tail vein into female Balb/C mice (Viton Lihua) aged 6 to 8 weeks at a dose of 5 μg/mouse (n=3, i.e. 3 mice were used for injection and testing in each group, and the data results presented were the mean measurements of each group). […] potassium salt was intraperitoneally injected at specific time points after administration (in this example, 6th hour, 24th hour, and 48th hour), and then the luminescence was detected by an IVIS Spectrum small animal living imager instrument (manufacturer: PerkinElmer). The overall luminescence intensity of live expression sites (such as the liver) in mice was counted. […] The overall luminescence intensity was the luminescence intensity data, measured by bioluminescence imaging, of the luminescent site obtained 6 to 15 minutes (min) after intraperitoneal injection of […] potassium salt. The overall luminescence intensity of the in vivo expression area was counted by using Living Image software (manufacturer: PerkinElmer), furthermore, an area under the curve (AUC, unit: p/s*hour) was calculated by using GraphPad software, and the AUC in each example of the present application is the area under the curve of a line connecting measurement points of the overall luminescence intensity from the 4th or 6th hour after drug administration (using the experimental method of the present application, peak values are the same from 3-6 hours after drug administration) to the 48th hour after drug administration. Test results were shown in FIG. 3 and FIG. 4A, as well as Table 2.
Furthermore, referring to the mouse in-vivo experimental method of Example 3, each group of LNP preparations in this example was injected into female Balb/C mice aged 6 to 8 weeks through tail vein injection or intramuscular injection of the lower limbs at a dose of 5 μg/mouse. The overall luminescence intensity of the liver or lower limb administration site was counted, and the test results were shown in FIG. 5A to FIG. 5D and Table 4A to Table 4D). […]

[7] = tested on: female Balb/C mice; assay: Total Spike antibody titer in serum (ELISA) after intramuscular injection of Spike mRNA LNP; type: in vivo; details: 2 μg/mouse, second injection on 21st day, serum 7th day after second administration, n=8, compared with PBS
[8] = Table 3, LNP 40:11:47.4:1.6, N/P 8:1
[9] = Table 3, LNP lipid:DSPC:cholesterol:DMG-PEG = 40:11:47.4:1.6, nitrogen-to-phosphorus ratio 8:1, Fluc mRNA
[10] = Table 1, Example 1 LNP preparations

Row | SMILES | Encapsulation efficiency (%) [1, 8] | pKa [2] | Surface potential (mV) [3] | PDI [4, 8] | Particle size (nm) [4, 9] | AUC (p/s*hour) ([5]; Table 4B (FIG. 5B)) | AUC (p/s*hour) ([6]; Table 4D (FIG. 5D)) | AUC (p/s*hour) ([5]; Table 4A (FIG. 5A)) | AUC (p/s*hour) ([6]; Table 4C (FIG. 5C)) | Encapsulation efficiency (%) [1, 10] | PDI [4, 10] | Particle size (nm) ([4]; Table 1, Example 1 LNP preparations (ionizable lipid:DSPC:cholesterol:DMG-PEG)) | total Spike protein antibody titer [7]
1 | CCCCCCCCCC(CCCCCCCCC)OC(=O)CCCN(CCO)CCN(CCO)CCCC(=O)OC(CCCCCCCCC)CCCCCCCCC [LQ104-E15b-3] | 96.0% | 6.161 | −10.70 mV | 0.083 | 52.80 nm | – | – | – | – | – | – | – | –
2 | CCCCCCCCC(CCCCCC)OC(=O)CCCCCCCN(CCO)CCN(CCO)CCCCCCCC(=O)OC(CCCCCC)CCCCCCCC (stereo not drawn) [LQ104-E18b-2] | 97.5% | 7.262 | −1.109 mV | 0.084 | 84.46 nm | 5.32E+10 p/s*hour | 3.06E+09 p/s*hour | – | – | – | – | – | –
3 | CCCCCCCCCC(CCCCCCC)OC(=O)CCCCCCN(CCO)CCN(CCO)CCCCCCC(=O)OC(CCCCCCC)CCCCCCCCC (stereo not drawn) [LQ104-E18b-3] | 97.4% | 7.039 | −2.466 mV | 0.063 | 90.39 nm | 1.06E+11 p/s*hour | 4.80E+09 p/s*hour | – | – | – | – | – | –
4 | CCCCCCCCC(CCCCCC)C(=O)OCCCCCCCN(CCO)CCN(CCO)CCCCCCCOC(=O)C(CCCCCC)CCCCCCCC (stereo not drawn) [LQ104-E18b-2R] | 97.4% | 7.033 | −2.013 mV | 0.081 | 80.10 nm | 1.01E+10 p/s*hour | 1.73E+09 p/s*hour | – | – | – | – | – | –
5 | CCCCCCCCC(CCCCCC)C(=O)OCCCCCCN(CCO)CCN(CCO)CCCCCCOC(=O)C(CCCCCC)CCCCCCCC (stereo not drawn) [LQ104-E17b-3R] | 97.4% | 7.153 | −2.203 mV | 0.087 | 77.34 nm | 6.33E+09 p/s*hour | 1.47E+09 p/s*hour | – | – | – | – | – | –
6 | CCCCCCCC(CCCCCCC)OC(=O)CCCCCCN(CCO)CCN(CCO)CCCCCCC(=O)OC(CCCCCCC)CCCCCCC [LQ104-E16b-1] | 97.2% | 7.109 | −3.35 mV | 0.044 | 84.84 nm | – | – | 2.74E+10 p/s*hour | 2.30E+09 p/s*hour | – | – | – | –
7 | CCCCCCCCCCCOC(=O)CCCCCN(CCCCCCCC(=O)OC(CCCCCCCC)CCCCCCCC)CCOC(=O)CC(=O)OCCN(CCCCCCCC(=O)OC(CCCCCCCC)CCCCCCCC)CCCCCC(=O)OCCCCCCCCCCC [LQ107] | – | – | – | – | – | – | – | – | – | 83.7% | 0.025 | 83.56 nm | did not increase
8 | CCCCCCCCC(CCCCCCCC)OC(=O)CCCCCCN(CCO)CCN(CCO)CCCCCCC(=O)OC(CCCCCCCC)CCCCCCCC [LQ104-E17b-2] | 97.4% | 6.852 | −1.852 mV | 0.045 | 74.14 nm | 5.58E+10 p/s*hour | 2.49E+09 p/s*hour | – | – | – | – | – | –
9 | CCCCCCCC(CCCCCCC)OC(=O)CCCCCCCN(CCO)CCN(CCO)CCCCCCCC(=O)OC(CCCCCCC)CCCCCCC [LQ104-E17b-1] | 96.9% | 7.19 | −1.066 mV | 0.082 | 85.67 nm | 3.16E+10 p/s*hour | 2.66E+09 p/s*hour | – | – | – | – | – | –
10 | CCCCCCCCC(CCCCCCCC)OC(=O)CCCCCN(CCO)CCN(CCO)CCCCCC(=O)OC(CCCCCCCC)CCCCCCCC [LQ104-E16b-2] | 97.9% | 6.761 | −4.38 mV | 0.098 | 75.44 nm | – | – | 8.98E+10 p/s*hour | 3.50E+09 p/s*hour | – | – | – | –
11 | CCCCCCCCC(CCCCCC)C(=O)OCCCCCN(CCO)CCN(CCO)CCCCCOC(=O)C(CCCCCC)CCCCCCCC (stereo not drawn) [LQ104-E16b-3R] | 96.8% | 6.802 | −4.59 mV | 0.088 | 89.68 nm | – | – | 1.47E+10 p/s*hour | 2.19E+09 p/s*hour | – | – | – | –
12 | CCCCCCCCC(CCCCCC)OC(=O)CCCCCCN(CCO)CCN(CCO)CCCCCCC(=O)OC(CCCCCC)CCCCCCCC (stereo not drawn) [LQ104-E17b-3] | 97.4% | 7.15 | −2.788 mV | 0.058 | 85.57 nm | 9.91E+10 p/s*hour | 3.82E+09 p/s*hour | – | – | – | – | – | –
13 | CCCCCCCC(CCCCCCC)OC(=O)CCCCCN(CCO)CCN(CCO)CCCCCC(=O)OC(CCCCCCC)CCCCCCC [LQ104-E15b-1] | 98.1% | 6.754 | −4.22 mV | 0.059 | 71.08 nm | – | – | 2.26E+10 p/s*hour | 5.58E+09 p/s*hour | – | – | – | –
14 | CCCCCCCCC(CCCCCC)OC(=O)CCCCCN(CCO)CCN(CCO)CCCCCC(=O)OC(CCCCCC)CCCCCCCC (stereo not drawn) [LQ104-E16b-3] | 97.6% | 6.773 | −5.94 mV | 0.091 | 78.35 nm | – | – | 1.95E+10 p/s*hour | 2.10E+09 p/s*hour | – | – | – | –
15 | CCCCCCCCCC(CCCCCCC)OC(=O)CCCCCN(CCO)CCN(CCO)CCCCCC(=O)OC(CCCCCCC)CCCCCCCCC (stereo not drawn) [LQ104-E17b-4] | 98.0% | 6.469 | −3.406 mV | 0.061 | 72.30 nm | 7.68E+10 p/s*hour | 2.86E+09 p/s*hour | – | – | – | – | – | –
16 | CCCCCCCCC(CCCCCCCC)OC(=O)CCCCN(CCO)CCN(CCO)CCCCC(=O)OC(CCCCCCCC)CCCCCCCC [LQ104-E15b-2] | 96.8% | 6.470 | −6.81 mV | 0.059 | 56.47 nm | – | – | – | – | – | – | – | –
